The source of these data is article PMC10584170, “Machine learning-based phenotypic imaging to characterise the targetable biology of Plasmodium falciparum male gametocytes for the development of transmission-blocking antimalarials” (PLOS Pathogens, 2023).

In assay [1] the test system is P. falciparum female gametocytes. The experiment in a line: P. falciparum Dual Gamete Formation Assay (PfDGFA), female readout (Pfs25-positive female gametes). In kind it is cell-based, Plasmodium falciparum NF54. The conditions noted are these: for Average inhibition female (%): average of replicates; for % inhibition female (individual replicates) R1: replicate R1; for % inhibition female (individual replicates) R3: replicate R3; for % inhibition female (individual replicates) R4: replicate R4. The procedure:
(§1) P. falciparum NF54 (originally isolated from an imported malaria case in the Netherlands in the 1980s; BEI Resources, cat. No. MRA-1000) strain asexual parasites were maintained between 0.3–5% parasitaemia by regular passage in complete culture medium (RPMI supplemented with 25 mM HEPES, 50 μg ml^−1 hypoxanthine, 4.8 g l^−1 NaHCO3, 2mM L-glutamine, 5% pooled type AB serum, 0.5% Albumax II (Gibco)) at 4% haematocrit in washed whole blood (National Blood and Transfusion Service or Centro de Transfusiones de la Comunidad de Madrid CTCM) under a 1% O2/3% CO2/96% N2 environment. Gametocytes were induced by seeding culture flasks at 2% parasitaemia/4% haematocrit and subjecting them to daily medium changes for 14 days whilst maintaining a temperature of 37°C at all times. On Day 14, the maturity of gametocytes was assessed by quantifying male gametogenesis (exflagellation). A 20 μl sample of gametocyte culture was mixed with equal volume of ookinete medium (complete culture medium supplemented with 0.1 μM xanthurenic acid) at room temperature and transferred to a haemocytometer. After 20 min at room temperature, exflagellation was accurately quantified as described in Delves et al. 2016 [17].
(§2) The Pf DGFA was performed as described in Delves et al. 2016 [17]. […] Plates were then incubated for 24 h at 37°C in a humidified box under a 1% O2/3% CO2/96% N2 gas mix. Gametogenesis was triggered by addition of 10 μl per well of ookinete medium + 0.27 μg ml^-1 Cy3-labelled anti-Pfs25 antibody. Plates were incubated on a metal block at 4°C for 4 min to ensure even cooling, then 28°C for a further 4 min. Exflagellation was recorded by capturing 10 frames over 1 s under brightfield illumination using a x4 objective with a 1.5x zoom (effectively x6) attached to an automated Nikon Ti fluorescence microscope. After recording exflagellation, plates were incubated for a further 24 h in the dark at 28°C to ensure maximal expression of Pfs25 by female gametes. The plates were then returned to the microscope and female gametes imaged at x6 using fluorescence microscopy.
(§3) Exflagellation centres and female gametes were quantified using custom image analysis pipelines developed within ICY Bioimage Analysis (https://icy.bioimageanalysis.org/).

Assay [2] relates to P. falciparum male gametocytes. Briefly: P. falciparum Dual Gamete Formation Assay (PfDGFA), male readout (exflagellation). In kind it is cell-based, Plasmodium falciparum NF54. The note with it: for Average inhibition male (%): average of replicates; for % inhibition male (individual replicates) R1: replicate R1; for % inhibition male (individual replicates) R3: replicate R3; for % inhibition male (individual replicates) R4: replicate R4; for Activity: hit = >50% inhibition in male or female readout in at least 3 replicates, 0 = no class assigned. The procedure:
as §1, §2, §3

The mark [3] stands for this setting: 2µM, 24h preincubation with gametocytes prior to induction of gametogenesis.
[4] abbreviates: 2µM, 24h preincubation, hits selected on >50% inhibition in the female readout across replicates.
[5] abbreviates: 2µM, 24h preincubation, hits selected on >50% inhibition in the male readout across replicates.
The mark [6] stands for this setting: PfDGFA at 2µM, 24h preincubation.
Setting [7] is: 2µM, 24h preincubation with gametocytes.
Where [8] appears, read: PfDGFA at 2µM, 24h preincubation with gametocytes prior to induction of gametogenesis.
The mark [9] stands for this setting: 2µM, 24h preincubation, number of replicates with >50% inhibition in the female readout.
[10] abbreviates: 2µM, 24h preincubation, number of replicates with >50% inhibition in the male readout.
[11] abbreviates: PfDGFA at 2µM, 24h preincubation with gametocytes.

Structures are written as SMILES.

Consider `Br.CCCCCCCCn1c2c(c(=N)c3c1CCC3)CCCC2` [TCMDC-125653], for which, in assay [1] (setting [3]), the “Average inhibition female (%)” value was determined as 10.3%, the “% inhibition female (individual replicates) R1” value was 8.6%, the “% inhibition female (individual replicates) R3” value is 3.3% and the “% inhibition female (individual replicates) R4” value turned out to be 15.0%. This compound showed a HitlevelF in assay [1] (setting [4]) of 0. In assay [2] (setting [3]), the “Average inhibition male (%)” value was 42.3%, the “% inhibition male (individual replicates) R1” value is on record as 42.8%, the “% inhibition male (individual replicates) R3” value was found to be 52.3% and the “% inhibition male (individual replicates) R4” value is listed as 40.6%. For the same compound, the HitlevelM in assay [2] (setting [5]) worked out at 1. The Activity in assay [2] (setting [6]) came out at 0.
Take `COc1ccc2nc3cc(Cl)ccc3c(N)c2c1.Cl` [TCMDC-125835]: in assay [1] (setting [7]), the “Average inhibition female (%)” value came to 50.6%, the “% inhibition female (individual replicates) R1” value was found to be 39.5%, the “% inhibition female (individual replicates) R3” value came out at 15.3% and the “% inhibition female (individual replicates) R4” value was found to be 62.7%. In assay [2] (setting [7]), the “Average inhibition male (%)” value turned out to be 96.0%, the “% inhibition male (individual replicates) R1” value stood at 94.1%, the “% inhibition male (individual replicates) R3” value was 90.9% and the “% inhibition male (individual replicates) R4” value came to 101.6%.
In the case of `Clc1ccc(Cc2nc3ccccc3[nH]2)cc1Cl` [TCMDC-125878], in assay [1] (setting [8]), the “% inhibition female (individual replicates) R1” value came out at 8.9%, the “% inhibition female (individual replicates) R3” value is reported as -15.0% and the “% inhibition female (individual replicates) R4” value is -0.8%. For the same compound, the “Average inhibition female (%)” value in assay [1] (setting [6]) was determined as 0.655%. Moreover, in assay [2] (setting [8]), the “% inhibition male (individual replicates) R1” value is listed as 0.8%, the “% inhibition male (individual replicates) R3” value was -14.5% and the “% inhibition male (individual replicates) R4” value was found to be 2.2%. In assay [2] (setting [6]), the “Average inhibition male (%)” value is reported as -4.5%.
Consider `COc1ccc(CCNCCCCCCNCCc2ccc(-c3ccccc3)cc2)cc1OC.Cl` [TCMDC-131267], for which, in assay [1] (setting [7]), the “Average inhibition female (%)” value was found to be 51.9%, the “% inhibition female (individual replicates) R1” value is listed as 49.5%, the “% inhibition female (individual replicates) R3” value stood at 51.6% and the “% inhibition female (individual replicates) R4” value is listed as 50.9%. Besides, in assay [2] (setting [7]), the “Average inhibition male (%)” value was 91.2%, the “% inhibition male (individual replicates) R1” value came to 90.5% and the “% inhibition male (individual replicates) R4” value is recorded as 88.4%.
In the case of `COc1ccc(CCNCCCCCNCCc2ccc(Cl)cc2)cc1OC.Cl` [TCMDC-131269], in assay [1] (setting [3]), the “Average inhibition female (%)” value came to 7.8%, the “% inhibition female (individual replicates) R1” value amounted to 17.8%, the “% inhibition female (individual replicates) R3” value was -21.2% and the “% inhibition female (individual replicates) R4” value was 18.8%. In assay [1] (setting [4]), this compound showed a HitlevelF of 0. In assay [2] (setting [3]), the “Average inhibition male (%)” value is on record as 50.1%, the “% inhibition male (individual replicates) R1” value was 46.0%, the “% inhibition male (individual replicates) R3” value is on record as 29.0% and the “% inhibition male (individual replicates) R4” value came out at 62.2%. The HitlevelM in assay [2] (setting [5]) is reported as 2. For the same compound, the Activity in assay [2] (setting [6]) came to 0.
With `Br.Oc1ccc(CCNCCCCCCNCCc2ccc(Cl)c3ccccc23)cc1O` [TCMDC-131271], in assay [1] (setting [3]), the “Average inhibition female (%)” value was found to be 16.5%, the “% inhibition female (individual replicates) R1” value is recorded as 16.8%, the “% inhibition female (individual replicates) R3” value is 9.0% and the “% inhibition female (individual replicates) R4” value is recorded as 24.5%. Also, the HitlevelF in assay [1] (setting [9]) amounted to 0. Further, in assay [2] (setting [3]), the “Average inhibition male (%)” value is 50.9%, the “% inhibition male (individual replicates) R1” value stood at 51.3%, the “% inhibition male (individual replicates) R3” value is given as 62.1% and the “% inhibition male (individual replicates) R4” value amounted to 62.3%. In assay [2] (setting [10]), the HitlevelM stood at 3.
`COc1ccc(CCNCCCCCCNCCc2ccc(Cl)c(Cl)c2)cc1OC.Cl` [TCMDC-131275]: in assay [1] (setting [3]), the “Average inhibition female (%)” value was 10.6%, the “% inhibition female (individual replicates) R1” value came to 26.6%, the “% inhibition female (individual replicates) R3” value was -14.3% and the “% inhibition female (individual replicates) R4” value amounted to 22.3%. This compound also had a HitlevelF in assay [1] (setting [4]) of 0. Also, in assay [2] (setting [3]), the “Average inhibition male (%)” value is 39.4%, the “% inhibition male (individual replicates) R1” value amounted to 42.2%, the “% inhibition male (individual replicates) R3” value is recorded as 31.4% and the “% inhibition male (individual replicates) R4” value is 46.9%. The HitlevelM in assay [2] (setting [5]) was determined as 0. In assay [2] (setting [6]), the Activity is recorded as 0.
For `Br.CC(C)(Cc1ccc(Cl)cc1)NCCCCCCNCCc1ccc(O)c(O)c1` [TCMDC-131277], in assay [1] (setting [3]), the “Average inhibition female (%)” value is on record as 25.5%, the “% inhibition female (individual replicates) R1” value is reported as 31.9%, the “% inhibition female (individual replicates) R3” value is reported as 42.8% and the “% inhibition female (individual replicates) R4” value is 1.4%. The HitlevelF in assay [1] (setting [9]) was found to be 0. In assay [2] (setting [3]), the “Average inhibition male (%)” value is listed as 21.3%, the “% inhibition male (individual replicates) R1” value is recorded as 17.2%, the “% inhibition male (individual replicates) R3” value is on record as 18.9% and the “% inhibition male (individual replicates) R4” value came to 31.6%. The HitlevelM in assay [2] (setting [10]) is 0.
For `COc1ccc(CCNCCCCCCNCCCc2ccc(Cl)cc2)cc1OC.Cl` [TCMDC-131280], in assay [1] (setting [3]), the “Average inhibition female (%)” value stood at 17.7%, the “% inhibition female (individual replicates) R1” value was 16.6%, the “% inhibition female (individual replicates) R3” value came out at 13.1% and the “% inhibition female (individual replicates) R4” value is reported as 24.0%. This compound displayed a HitlevelF in assay [1] (setting [4]) of 0. In assay [2] (setting [3]), the “Average inhibition male (%)” value is recorded as 28.8%, the “% inhibition male (individual replicates) R1” value worked out at 30.2%, the “% inhibition male (individual replicates) R3” value stood at 15.3% and the “% inhibition male (individual replicates) R4” value is recorded as 32.2%. The same compound displayed a HitlevelM in assay [2] (setting [5]) of 0. The Activity in assay [2] (setting [6]) is 0.
As to `Br.CCCCc1ccc(CCNCCCCCCNCCc2ccc(O)c(O)c2)cc1` [TCMDC-131281], in assay [1] (setting [11]), the “Average inhibition female (%)” value was determined as 39.8%, the “% inhibition female (individual replicates) R1” value worked out at 30.3%, the “% inhibition female (individual replicates) R3” value was 35.5% and the “% inhibition female (individual replicates) R4” value amounted to 31.1%. Also, the HitlevelF in assay [1] (number of replicates with >50% inhibition in the female readout, 2µM) stood at 1. In addition, in assay [2] (setting [11]), the “Average inhibition male (%)” value was 80.5%, the “% inhibition male (individual replicates) R1” value was 68.8% and the “% inhibition male (individual replicates) R4” value was 77.5%. Further, the HitlevelM in assay [2] (number of replicates with >50% inhibition in the male readout, 2µM) was found to be 3.
`COc1cccc(CCNCCCCCCNCCc2ccc(Cl)cc2)c1.Cl` [TCMDC-131284]: in assay [1] (setting [3]), the “Average inhibition female (%)” value is listed as 15.8%, the “% inhibition female (individual replicates) R1” value is reported as 18.4%, the “% inhibition female (individual replicates) R3” value is listed as 6.6% and the “% inhibition female (individual replicates) R4” value is listed as 6.5%. For the same compound, the HitlevelF in assay [1] (setting [4]) came to 0. Besides, in assay [2] (setting [3]), the “Average inhibition male (%)” value was found to be 40.5%, the “% inhibition male (individual replicates) R1” value was 42.7%, the “% inhibition male (individual replicates) R3” value was 17.7% and the “% inhibition male (individual replicates) R4” value is on record as 36.9%. Moreover, the HitlevelM in assay [2] (setting [5]) stood at 1. Also, the Activity in assay [2] (setting [6]) turned out to be 0.
Regarding `Br.Oc1cccc(CCNCCCCCCNCCc2ccc(Cl)cc2)c1` [TCMDC-131285], in assay [1] (setting [3]), the “Average inhibition female (%)” value was determined as 14.3%, the “% inhibition female (individual replicates) R1” value came to 12.4%, the “% inhibition female (individual replicates) R3” value is recorded as 15.9% and the “% inhibition female (individual replicates) R4” value was 17.3%. Further, in assay [1] (setting [4]), the HitlevelF stood at 0. For the same compound, in assay [2] (setting [3]), the “Average inhibition male (%)” value is given as 17.5%, the “% inhibition male (individual replicates) R1” value is on record as 13.8%, the “% inhibition male (individual replicates) R3” value was found to be 6.4% and the “% inhibition male (individual replicates) R4” value worked out at 28.9%. The compound further returned a HitlevelM in assay [2] (setting [5]) of 0. For the same compound, in assay [2] (setting [6]), the Activity is recorded as 0.
